Laboratory results reported in patent publication US20070264250A1, “Composition for Skin-Whitening and Wrinkle-Care” (priority 2004, published 2007).

Type: physicochemical
Conditions: 1 mM, pH 7
Description: Stabilities of 2-o-α-glucopyranosyl-L-ascorbic acid and ascorbic acid in an aqueous solution were compared.
(1) 2-o-α-glucopyranosyl-L-ascorbic acid, (2) ascorbic acid, and (3) 2-o-α-glucopyranosyl-L-ascorbic acid and 10 units of α-glucosidase were added to 50 mM potassium phosphate buffer solution (pH 7.0) so that a concentration of each component was 1 mM, to produce test groups. The test groups were stored at 37° C., sampled every day for 5 days, and quantitatively analyzed.
The quantitative analysis (HPLC analysis) for test materials was conducted under conditions described in the following Table 1. An amount of remaining 2-o-α-glucopyranosyl-L-ascorbic acid or ascorbic acid which was not degraded was reduced by an initial concentration, and stability was evaluated using the ratio.
However, almost all vitamin C was degraded within 2 days. […] As well, it was confirmed that converted vitamin C was immediately degraded.

SMILES: O=C1O[C@H]([C@@H](O)CO)C(O)=C1O [vitamin C, ascorbic acid]
- time within which almost all was degraded: ≤ 2 days
